# Target: Adenosine receptor A2a (Homo sapiens, UniProt P29274)
# Assay: Displacement of [3H]ZM241385 from human adenosine A2A receptor expressed in HEK293 cell membrane incubated for 1 hr by microplate beta scintillation counting based radioligand inhibition assay
# Type: cell membranes
# Sequence of Adenosine receptor A2a (P29274 whole entry): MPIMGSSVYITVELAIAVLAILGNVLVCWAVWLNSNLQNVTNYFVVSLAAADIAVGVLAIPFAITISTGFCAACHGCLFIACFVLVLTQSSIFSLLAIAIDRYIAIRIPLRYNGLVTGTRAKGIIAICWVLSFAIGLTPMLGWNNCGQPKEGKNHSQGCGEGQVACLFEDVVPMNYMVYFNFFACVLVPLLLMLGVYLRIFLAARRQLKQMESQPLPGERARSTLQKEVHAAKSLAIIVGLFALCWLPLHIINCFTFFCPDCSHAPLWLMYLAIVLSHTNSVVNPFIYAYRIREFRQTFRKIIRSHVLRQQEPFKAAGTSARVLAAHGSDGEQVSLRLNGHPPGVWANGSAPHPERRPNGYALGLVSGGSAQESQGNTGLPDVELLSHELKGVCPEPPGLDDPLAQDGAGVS
row,Ki [nM],Compound
1,> 10000,Clc1nc(-c2ccccc2)c2ccccc2n1
2,198,Nc1nc(-c2ccccc2)c2ccccc2n1
3,174,Nc1nc(-c2cccc(F)c2)c2ccccc2n1
4,708,COc1cccc(-c2nc(N)nc3ccccc23)c1
5,696,Nc1nc(-c2ccoc2)c2ccccc2n1
6,586,N#Cc1cccc(-c2nc(N)nc3ccccc23)c1
7,> 10000,Cc1cccc(C)c1-c1nc(N)nc2ccccc12
8,3300,Cc1ccccc1-c1nc(N)nc2ccccc12
9,> 10000,Nc1nc(-c2ccccc2[N+](=O)[O-])c2ccccc2n1
10,2000,Nc1nc(-c2ccccc2N)c2ccccc2n1
11,89,Nc1nc(-c2ccco2)c2ccccc2n1
12,1500,Cc1ccc(-c2nc(N)nc3ccccc23)cc1
13,171,Nc1nc(-c2cccs2)c2ccccc2n1
14,> 10000,CC(C)(C)c1ccc(-c2nc(N)nc3ccccc23)cc1
15,651,COc1ccccc1-c1nc(N)nc2ccccc12
16,456,Nc1nc(-c2ccccc2F)c2ccccc2n1
17,80,Nc1nc(-c2ccc(F)cc2)c2ccccc2n1
18,736,COc1ccc(-c2nc(N)nc3ccccc23)cc1

# The remaining lines, values behind:
row,Compound,Ki [nM]
1,c1ccc(CCNc2ncnc3ccccc23)cc1,> 10000
2,Oc1nc(-c2ccccc2)c2ccccc2n1,> 10000
3,c1ccc(-c2ncnc3ccccc23)cc1,2300
4,Nc1nc(Nc2ccccc2)c2ccccc2n1,> 10000
5,Nc1nc(NCCc2ccccc2)c2ccccc2n1,> 10000
6,Nc1nc(NCc2ccccc2)c2ccccc2n1,> 10000
7,Nc1nc(-c2ccccc2)nc2ccccc12,> 10000
8,NCc1nc(-c2ccccc2)c2ccccc2n1,> 10000
9,Nc1nc(CCc2ccccc2)c2ccccc2n1,> 10000
10,C(#Cc1ncnc2ccccc12)c1ccccc1,4000
11,NCc1nc(-c2ccco2)c2ccccc2n1,> 10000
12,NCc1nc(NCCc2ccccc2)c2ccccc2n1,> 10000
